Article PMC7434893 (British Journal of Cancer, 2020)
Values joined by “and” are separate entries in the source; they are usually repeats but may differ in a detail not shown here. Equal values may be shown once.

Legend:
U266 = assay: 8-day growth inhibition; type: cell-based; conditions: Myeloma, U266, 8-day assay
NCI-H524 = assay: 8-day growth inhibition; type: cell-based; conditions: SCLC, NCI-H524, 8-day assay
[1] = 2-compartment pharmacokinetic model; type: in vivo, human; conditions: model estimate
Excerpt: In the second stage, the final parameters from the pharmacokinetic model were fixed for sequential PK/PD modelling.

[2] = Plasma and urine pharmacokinetics, dose-escalation cohorts; type: in vivo, human; conditions: for AUC(0-inf) / AUC(0–24) / Ae, amount of drug dose excreted in urine / CLR / Cav,ss / Cmax / fe, fraction of dose excreted in urine / t1/2 / AUC(0-t): mean (SD); for tmax: median (min, max)
Protocol: Blood samples were also collected immediately before the dose on day 7 of cycle 1, days 1 and 15 of cycle 2 and on day 1 of cycle 3, and beyond. All urine produced during the time intervals pre-dose, 0–2 h, 2–4 h, 4–10 h and 10–24 h following the single dose on day –2, and after multiple doses on cycle 1, day 15, was collected.

HEC-265 = assay: 8-day growth inhibition; type: cell-based; conditions: Endometrial, HEC-265, 8-day assay
[3] = Food-effect pharmacokinetics, expansion cohort; type: in vivo, human; conditions: for Cmax / AUC(0-24h) / AUC(0-inf) / AUC(0-t) / Rac / t1/2 / tmax: 600 mg; for Cmax / AUC(0-24h) / AUC(0-inf) / AUC(0-t) / Rac / t1/2: mean (SD); for tmax: median (min, max)
Protocol: Fed patients were administered E7449 immediately after consuming a meal. Patients were then crossed over to the alternate food regimen on day 15.

sVEGFR2 = assay: Serum biomarker analysis, sVEGFR2; type: in vivo, human; conditions: data not shown
Protocol: Two pre-dose, multiple post-dose and off-treatment time points were included. Serum samples were tested for concentrations of soluble vascular endothelial growth factor receptor (VEGFR)2, VEGFR3 and soluble interleukin-2 receptor α (sIL-2Rα/CD25), using the bead-based Human Soluble Cytokine Receptor Panel assay kit. The two baseline samples (days −3 and −2 prior to dosing) were averaged, and the mean was used to calculate percent change at each of the post-dosing time points.

[4] = 50 mg once daily, cycle 1 day 15, steady state
[5] = 100 mg once daily, cycle 1 day 15, steady state
[6] = 200 mg once daily, cycle 1 day 15, steady state
[7] = 400 mg once daily, cycle 1 day 15, steady state
[8] = 600 mg once daily, cycle 1 day 15, steady state
[9] = 800 mg once daily, cycle 1 day 15, steady state

O=c1[nH]nc2c3c(cccc13)N=C(CN1Cc3ccccc3C1)N2 [E7449]
IC50 (U266): 6700 nM | IC50 (NCI-H524): 690 nM | k12 ([1]; central to peripheral compartment): 0.21 h⁻¹ | V/F, apparent volume of distribution for the central compartment ([1]; all doses fitted): 149.7 L | ka, absorption rate constant ([1]; all doses fitted): 0.82 h⁻¹ | ke, first-order elimination rate constant ([1]; all doses fitted): 0.51 h⁻¹ | k21 ([1]; peripheral to central compartment): 0.27 h⁻¹ | AUC(0-inf) [2, 4]: 634 (n = 1) ng·h/mL | AUC(0–24) [2, 4]: 714 (193) ng·h/mL | Ae, amount of drug dose excreted in urine [2, 4]: 0.19 (0.00) (n = 2) mg | CLR [2, 4]: 0.3 (0.01) (n = 2) L/h | Cav,ss [2, 4]: 29.7 (8.03) ng/mL | Cmax [2, 4]: 264 (227) ng/mL | fe, fraction of dose excreted in urine [2, 4]: 0.39 (0.01) (n = 2) % | t1/2 [2, 4]: 9.04 (n = 1) h | tmax [2, 4]: 1.00 (0.5, 2.00) h | AUC(0-inf) ([2]; 50 mg, day –2 single dose): 770 (n = 1) ng·h/mL | AUC(0-t) ([2]; 50 mg, day –2 single dose): 603 (213) ng·h/mL | AUC(0–24) ([2]; 50 mg, day –2 single dose): 768 (n = 1) ng·h/mL | Ae, amount of drug dose excreted in urine ([2]; 50 mg, day –2 single dose): 0.11 (0.06) (n = 2) mg | Cmax ([2]; 50 mg, day –2 single dose): 265 (99.8) ng/mL | fe, fraction of dose excreted in urine ([2]; 50 mg, day –2 single dose): 0.22 (0.13) (n = 2) % | t1/2 ([2]; 50 mg, day –2 single dose): 3.42 (n = 1) h | tmax ([2]; 50 mg, day –2 single dose): 2.00 (0.58, 2.03) h | AUC(0-inf) [2, 5]: 1150 (266) ng·h/mL | AUC(0–24) [2, 5]: 1100 (244) ng·h/mL | Ae, amount of drug dose excreted in urine [2, 5]: 0.70 (n = 1) mg | CLR [2, 5]: 0.5 (n = 1) L/h | Cav,ss [2, 5]: 45.8 (10.2) ng/mL | Cmax [2, 5]: 404 (175) ng/mL | fe, fraction of dose excreted in urine [2, 5]: 0.70 (n = 1) % | t1/2 [2, 5]: 8.92 (2.50) h | tmax [2, 5]: 3.00 (1.00, 4.00) h | AUC(0-inf) ([2]; 100 mg, day –2 single dose): 895 (99.8) ng·h/mL | AUC(0-t) ([2]; 100 mg, day –2 single dose): 879 (104) ng·h/mL | AUC(0–24) ([2]; 100 mg, day –2 single dose): 879 (104) ng·h/mL | Ae, amount of drug dose excreted in urine ([2]; 100 mg, day –2 single dose): 0.47 (n = 1) mg | CLR ([2]; 100 mg, day –2 single dose): 0.5 (n = 1) L/h | Cmax ([2]; 100 mg, day –2 single dose): 284 (112) ng/mL | fe, fraction of dose excreted in urine ([2]; 100 mg, day –2 single dose): 0.47 (n = 1) % | t1/2 ([2]; 100 mg, day –2 single dose): 6.35 (3.36) h | tmax ([2]; 100 mg, day –2 single dose): 2.05 (1.08, 3.00) h | AUC(0-inf) [2, 6]: 2670 (1510) (n = 2) ng·h/mL | AUC(0–24) [2, 6]: 3690 (2230) ng·h/mL | Ae, amount of drug dose excreted in urine [2, 6]: 1.11 (0.33) mg | CLR [2, 6]: 0.5 (0.4) L/h | Cav,ss [2, 6]: 154 (93.1) ng/mL | Cmax [2, 6]: 1430 (1080) ng/mL | fe, fraction of dose excreted in urine [2, 6]: 0.55 (0.17) % | t1/2 [2, 6]: 9.19 (4.83) (n = 2) h | tmax [2, 6]: 1.00 (1.00, 2.00) h | AUC(0-inf) ([2]; 200 mg, day –2 single dose): 3320 (1790) (n = 2) ng·h/mL | AUC(0-t) ([2]; 200 mg, day –2 single dose): 3780 (1180) ng·h/mL | AUC(0–24) ([2]; 200 mg, day –2 single dose): 3670 (1170) ng·h/mL | Ae, amount of drug dose excreted in urine ([2]; 200 mg, day –2 single dose): 0.70 (0.60) (n = 3) mg | CLR ([2]; 200 mg, day –2 single dose): 0.2 (0.15) (n = 3) L/h | Cmax ([2]; 200 mg, day –2 single dose): 996 (676) ng/mL | fe, fraction of dose excreted in urine ([2]; 200 mg, day –2 single dose): 0.34 (0.29) (n = 3) % | t1/2 ([2]; 200 mg, day –2 single dose): 7.08 (1.16) (n = 2) h | tmax ([2]; 200 mg, day –2 single dose): 3.10 (1.03, 4.18) h | AUC(0-inf) [2, 7]: 3240 (820) (n = 2) ng·h/mL | AUC(0–24) [2, 7]: 4730 (2730) ng·h/mL | Ae, amount of drug dose excreted in urine [2, 7]: 2.05 (1.09) mg | CLR [2, 7]: 0.4 (0.14) L/h | Cav,ss [2, 7]: 197 (114) ng/mL | Cmax [2, 7]: 1130 (1030) ng/mL | fe, fraction of dose excreted in urine [2, 7]: 0.51 (0.27) % | t1/2 [2, 7]: 4.16 (1.72) (n = 2) h | tmax [2, 7]: 4.00 (0.5, 4.00) h | AUC(0-inf) ([2]; 400 mg, day –2 single dose): 4800 (3000) (n = 3) ng·h/mL | AUC(0-t) ([2]; 400 mg, day –2 single dose): 4800 (2450) ng·h/mL | AUC(0–24) ([2]; 400 mg, day –2 single dose): 4690 (2400) ng·h/mL | Ae, amount of drug dose excreted in urine ([2]; 400 mg, day –2 single dose): 2.77 (1.82) mg | CLR ([2]; 400 mg, day –2 single dose): 0.6 (0.34) L/h | Cmax ([2]; 400 mg, day –2 single dose): 999 (619) ng/mL | fe, fraction of dose excreted in urine ([2]; 400 mg, day –2 single dose): 0.69 (0.45) % | t1/2 ([2]; 400 mg, day –2 single dose): 8.62 (0.54) (n = 3) h | tmax ([2]; 400 mg, day –2 single dose): 2.04 (1.03, 4.05) h | AUC(0-inf) [2, 8]: 9660 (4550) (n = 4) ng·h/mL | AUC(0–24) [2, 8]: 7900 (4730) ng·h/mL | Ae, amount of drug dose excreted in urine [2, 8]: 2.25 (1.28) mg | CLR [2, 8]: 0.3 (0.12) L/h | Cav,ss [2, 8]: 329 (198) ng/mL | Cmax [2, 8]: 2230 (1570) ng/mL | fe, fraction of dose excreted in urine [2, 8]: 0.38 (0.21) % | t1/2 [2, 8]: 5.05 (1.76) (n = 4) h | tmax [2, 8]: 1.14 (0.50, 4.05) h | AUC(0-inf) ([2]; 600 mg, day –2 single dose): 10,700 (5040) (n = 4) ng·h/mL | AUC(0-t) ([2]; 600 mg, day –2 single dose): 8120 (4990) ng·h/mL | AUC(0–24) ([2]; 600 mg, day –2 single dose): 7930 (4990) ng·h/mL | Ae, amount of drug dose excreted in urine ([2]; 600 mg, day –2 single dose): 2.90 (0.51) mg | CLR ([2]; 600 mg, day –2 single dose): 5.0 (13.0) L/h | Cmax ([2]; 600 mg, day –2 single dose): 2250 (1330) ng/mL | fe, fraction of dose excreted in urine ([2]; 600 mg, day –2 single dose): 0.48 (0.09) % | t1/2 ([2]; 600 mg, day –2 single dose): 7.17 (2.98) (n = 4) h | tmax ([2]; 600 mg, day –2 single dose): 2.12 (0.50, 24.3) h | AUC(0-inf) [2, 9]: 12,000 (5910) (n = 4) ng·h/mL | AUC(0–24) [2, 9]: 12,400 (5230) ng·h/mL | Ae, amount of drug dose excreted in urine [2, 9]: 4.70 (2.91) mg | CLR [2, 9]: 0.5 (0.34) L/h | Cav,ss [2, 9]: 516 (218) ng/mL | Cmax [2, 9]: 4120 (2160) ng/mL | fe, fraction of dose excreted in urine [2, 9]: 0.68 (0.47) % | t1/2 [2, 9]: 6.44 (1.56) (n = 4) h | tmax [2, 9]: 0.50 (0.0, 1.97) h | AUC(0-inf) ([2]; 800 mg, day –2 single dose): 12,900 (3350) (n = 4) ng·h/mL | AUC(0-t) ([2]; 800 mg, day –2 single dose): 11,500 (3370) ng·h/mL | AUC(0–24) ([2]; 800 mg, day –2 single dose): 11,300 (3230) ng·h/mL | Ae, amount of drug dose excreted in urine ([2]; 800 mg, day –2 single dose): 4.00 (1.73) mg | CLR ([2]; 800 mg, day –2 single dose): 0.4 (0.12) L/h | Cmax ([2]; 800 mg, day –2 single dose): 4430 (2470) ng/mL | fe, fraction of dose excreted in urine ([2]; 800 mg, day –2 single dose): 0.50 (0.22) % | t1/2 ([2]; 800 mg, day –2 single dose): 9.45 (2.42) (n = 4) h | tmax ([2]; 800 mg, day –2 single dose): 0.79 (0.50, 2.00) h | Drug dose excreted unchanged in urine ([2]; across doses): Less than 1.5% | Elimination half-life, t1/2 ([2]; across doses): approximately 8 h | IC50 (HEC-265): 2400 nM | Cmax ([3]; fasted (n=10)): 1470 (697) ng/mL | AUC(0-24h) ([3]; fasted): 5510 (1730) (n=9) ng·h/mL | AUC(0-inf) ([3]; fasted): 4480 (1850) (n=2) ng·h/mL | AUC(0-t) ([3]; fasted): 5310 (1780) (n=10) ng·h/mL | Rac ([3]; fasted): 1.07 (0.03) (n=2) | t1/2 ([3]; fasted): 6.11 (0.74) (n=2) h | tmax ([3]; fasted): 2.01 (0.97, 3.00) h | Cmax ([3]; fed (n=11)): 863 (563) ng/mL | AUC(0-24h) ([3]; fed): 6150 (3280) ng·h/mL | AUC(0-inf) ([3]; fed): 6600 (1430) (n=5) ng·h/mL | AUC(0-t) ([3]; fed): 6150 (3270) ng·h/mL | Rac ([3]; fed): 1.08 (0.12) (n=5) | t1/2 ([3]; fed): 5.64 (3.17) (n=5) h | tmax ([3]; fed): 4.05 (1.07, 8.18) h | Increase in AUC (0–24 h or 0-t) with a high-fat meal ([3]; 600-mg dose): ~ 10% and 10% | Reduction in Cmax with a high-fat meal ([3]; 600-mg dose): 60% | Change in serum concentration of sVEGFR2 from baseline (sVEGFR2): No significant changes
